This is an account of results in US20150144521A1, “STORAGE AIDS COMPRISING PLANT PROTECTANTS AND THEIR USE” (priority 2012, published 2015).

One series concerns potatoes. Briefly: sprouting on continued storage after large-scale treatment. The class given is in vivo. Here is the method: Three to four repeated treatments of the product being stored are carried out in practice at regular time intervals.
A storage aid is therefore also suitable for sprouting suppression in seed potatoes for a limited period of time.
Therefore, seed potatoes must not, in principle, ever be treated directly with a growth regulator.

Series [1] can be described thus: losses due to evaporation (FIG. 1). The class given is physicochemical. The settings on record: 30° C., after 30 days. The text has this: FIG. 1 is a graph showing losses of isopropyl-N-(m-chlorophenyl) carbamate due to evaporation;
For series [2] the following is noted: 25° C.; cited from earlier work.

On to `CC(C)OC(=O)Nc1cccc(Cl)c1` [CIPC, isopropyl-N-(m-chlorophenyl)-carbamate], for which, in the series on potatoes, the “sprouting ability after conventional intensive hot fumigation (FIG. 5)” value is “completely suppressed”. For the same compound, in series [1], the “losses due to evaporation” value was found to be 0.03%.

As to `CC(C)OC(=O)Nc1ccccc1` [IPC, isopropyl-N-phenyl carbamate], the vapor pressure in series [2] is recorded as 0.144 mbar.

With `CCOC(=O)Nc1ccccn1` [ethyl-2-pyridyl carbamate], the vapor pressure in series [2] is recorded as 0.1 mbar. Take trifluoromethyl-2-thienyl carbamate: the vapor pressure in series [2] was 5.5 mbar.
